Experimental data taken from patent US9809604B2, “DGAT1 inhibitor and preparation method and use thereof” (Qingdao Huanghai Pharmaceutical Co., Ltd., priority 2013, dated 2017).
In brackets after ≈: the same amount, converted by molar mass. Like-named read-outs stand apart in the source and are kept apart here.

Experiments:
mouse DGAT1 = biological target: T1, mouse DGAT1 (Mus musculus, UniProt Q9Z2A7); assay: Mouse DGAT1 IC50 enzymatic assay; format: biochemical
T1 construct: made in house
T1 sequence (Q9Z2A7 1-498): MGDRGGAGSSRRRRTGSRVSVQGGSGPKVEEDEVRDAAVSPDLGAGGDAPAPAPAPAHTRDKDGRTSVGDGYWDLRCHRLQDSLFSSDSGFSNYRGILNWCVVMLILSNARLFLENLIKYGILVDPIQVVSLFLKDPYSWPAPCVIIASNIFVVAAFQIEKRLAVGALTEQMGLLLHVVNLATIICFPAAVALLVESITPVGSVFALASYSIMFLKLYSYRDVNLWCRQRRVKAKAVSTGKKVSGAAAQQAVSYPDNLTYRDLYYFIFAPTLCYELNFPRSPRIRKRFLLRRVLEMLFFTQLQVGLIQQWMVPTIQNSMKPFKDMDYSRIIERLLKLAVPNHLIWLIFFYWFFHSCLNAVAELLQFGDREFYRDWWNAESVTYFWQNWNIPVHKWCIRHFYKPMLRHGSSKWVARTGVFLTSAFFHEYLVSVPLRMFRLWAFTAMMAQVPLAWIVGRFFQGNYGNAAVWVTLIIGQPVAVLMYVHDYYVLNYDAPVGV
Method: Expressing human DGAT1 enzyme, used diacylglycerol and 14C-labeled acyl-CoA as the substrate, choose PE Company Flashplate testing board to build DGAT1 enzyme reaction system. 14C-labeled acyl-CoA binds to diacylglycerol by covalent bonding after enzymology reaction, and generates the product of 14C-labeled triglyceride. 14C-labeled acyl-CoA substrate is dissolved in reaction solution and 14C-labeled triglyceride product combine with phospholipids of Flashplate plate bottom layer, thus effectively separate labeled substrates and products. The radioactive of 14C-labeled triglyceride which is combined with phospholipid layer is counted, and the potencies of DGAT-1 inhibition for the compounds are determined by calculating the IC50 values.
Mouse DGAT1 activity was determined as follows:
Mouse DGAT1 IC50 determination method: in addition to expression of mouse DGAT1, experiment method with human DGAT1 enzymatic assay is the same.

Solubility at pH 7.4 = format: physicochemical; details: pH 7.4, aqueous buffer; read-out: Sol pH 7.4
[1] = Plasma pharmacokinetics in male SD rats; format: in vivo; details: rat; for AUC(0-t) / half-life / Vd / bioavailability: male, SD, plasma; for AUC(0-t): read-out: AUC0-1 (ng · n/mL); for half-life: read-out: T1/2 (b) (converted); for Vd: intravenous, 2 mg/kg, read-out: Vdss; for bioavailability: oral, 10 mg/kg
Method: (3) Pharmacokinetics of Test Compounds
The purpose of this study is to determine the plasma pharmacokinetics of male SD rats. Two animals will receive a solution of test article in vehicle by single intravenous bolus via tail vein; the dosage is 2 mg/kg. Blood samples are taken at specified time points (0, 0.0833, 0.25, 0.5, 1, 2, 4, 7, 24 h) after dosing. Another two animals will receive a solution or suspension of TA in vehicle by oral gavage at 10 mg/kg. The schedule for sample collection is 0.5, 1, 2, 3, 4, 6, 24 h after dosing. A LC/MS/MS method is used to measure the concentration of test compound in plasma. Non-compartmental pharmacokinetic analysis is performed on the plasma concentration-time data. PK parameters of calculations are done using Phoenix WinNonlin. 6.2.1 software program.

[2] = system: plasma triacylglycerol levels; assay: Lipid tolerance test in mice; format: in vivo
Method: (1) Lipid Tolerance Test in Mice:
CDI mice (30 g or so) were individually housed in hanging wire cages at 20-25° C. with a 12:12 hour light:dark cycle (Humidity: 40˜70%). The mice had ad libitum access to water. On the day of experimentation, food jars were removed from each cage 16 hours prior to rate received either vehicle or test article based on a randomization plan generated by randomization. After sixty minutes, oral administration (gavage) of corn oil at a dose volume of 6 mL/kg (time=0). Blood samples were obtained from each mouse via tail snip procedure at −0.5, 0.5, 1, 2 and 4 hours. 20 ul of blood sampling will be rapidly collected, and then is centrifuged at 7000 rpm for 10 min to determine plasma triacylglycerol levels. Triglyceride was quantitated using TG ELISA kit. All data will be analyzed using SPSS. p<0.05 is considered to be statistically significant.

[3] = Diet induced obesity in mice; format: in vivo; details: DIO mice
Method: (2) Diet Induced Obesity in Mice
Male C57bl/6J mice (6 weeks) were individually housed in hanging wire cages at 20-25° C. with a 12:12 hour light:dark cycle (Humidity: 40˜70%). After one week acclimation, the mice are fed with high fat pelleted diet (D12492i, Research Diets, Inc) and fresh water, ad libitum. Typically; C57BL/6J male mice become obese, and reach 40-50 g after 12-14 weeks of high fat diet treatment.
Animals accept oral gavages acclimation for two weeks. Then next, they are dosed with test articles or vehicle (bid) accordingly for 7 day. Food intake and body weight are recorded every day. Data are graphed by Graph Pad Prism 5.0 and evaluated using SPSS, p<0.05 is considered to be statistically significant.

DGAT1 [4] = biological target: T2, DGAT1 (Homo sapiens, UniProt O75907); assay: Human DGAT1 IC50 enzyme assay (Flashplate, 14C-labeled acyl-CoA); format: biochemical; set-up: made in house
T2 sequence (O75907 1-488): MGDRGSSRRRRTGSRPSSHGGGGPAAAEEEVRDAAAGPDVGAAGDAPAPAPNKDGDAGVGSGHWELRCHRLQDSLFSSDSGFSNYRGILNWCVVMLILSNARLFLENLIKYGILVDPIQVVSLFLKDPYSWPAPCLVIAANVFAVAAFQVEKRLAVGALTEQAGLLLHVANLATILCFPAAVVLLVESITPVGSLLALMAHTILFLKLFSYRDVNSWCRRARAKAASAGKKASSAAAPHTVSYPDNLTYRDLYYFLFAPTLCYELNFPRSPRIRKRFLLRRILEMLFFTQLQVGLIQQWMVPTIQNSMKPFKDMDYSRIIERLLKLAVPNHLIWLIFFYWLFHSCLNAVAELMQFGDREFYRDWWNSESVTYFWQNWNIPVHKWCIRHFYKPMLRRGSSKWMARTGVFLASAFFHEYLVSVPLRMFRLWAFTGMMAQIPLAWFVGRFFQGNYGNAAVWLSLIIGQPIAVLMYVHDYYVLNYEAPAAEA
Procedure, shortened: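 Radiometric Flashplate format: expressed human DGAT1 transfers 14C-acyl from acyl-CoA onto diacylglycerol, and labeled triglyceride binding the plate's phospholipid layer is counted. Potency reported as IC50; Ki calculated as IC50/(1+[S]/Km).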

DGAT1 [5] = biological target: T2, DGAT1; assay: In vitro assay in HEK-293 cells (13C-labeled oleic acid incorporation into TG, LC/MS/MS); format: cell-based; set-up: endogenous DGAT1-expressing catalytic ^13C-labeled oleic acid incorporate to TG; endogenous in cells; host or cells: HEK293; details: for EC50: HEK293 cells
Excerpt: In Vitro Assay in HEK-293 Cells:
We treated HEK293 cells with stable isotope ^13C-labeled oleic acid and endogenous DGAT1-expressing catalytic ^13C-labeled oleic acid incorporate to TG. The extraction and separation of cell suspension is to obtain the triglycerides composition. A LC/MS/MS method is used to measure the concentration of ^13C in TG to determine catalytic reaction rate of DGAT1, then determine the compound of DGAT1 inhibition (IC50).

[6] = iv, 1.78-2.06 mg/kg as printed in each cell
[7] = average of first and second, read-out: hDGAT1 IC50(nM) Average
[8] = first determination, read-out: hDGAT1 IC50(nM) First
[9] = second determination, read-out: hDGAT1 IC50(nM) Second

Question: For `Cc1cc(N2CCOc3ncnc(N)c3C2=O)cc(C)c1-c1cn(CC(F)(F)F)nc1C` [Compound 41, 4-amino-6-(3,5-dimethyl-4-(3-methyl-1-(2,2,2-trifluoroethyl)-1H-pyrazol-4-yl)phenyl)-7,8-dihydropyrimido[5,4-f][1,4]oxazepin-5(6H)-one], which IC50 (mouse DGAT1) is on record?
Answer: 12.5 nM

Question: And the solubility (Solubility at pH 7.4)?
Answer: 187 µM (≈ 83.5 µg/mL)

Question: And the AUC(0-t) [1, 6]?
Answer: 2120 ng·h/mL

Question: What about the half-life ([1]; po, 8.94-9.33 mg/kg) of the same compound?
Answer: 3.2 h

Question: And the Vd [1]?
Answer: 1.49 L/kg

Question: And the bioavailability [1]?
Answer: ~100%

Question: And the “CI” value [1]?
Answer: 14.4 mL/min/kg

Question: And the “Inhibtion % @ 2 h 1 MPK PO” value [2]?
Answer: 83% inh

Question: And the “7 days Cumulative Body Weight Change (%)” value ([3]; 10mpk BID)?
Answer: −3.32%

Question: And the “7 days Cumulative Food Intake Change (%)” value ([3]; 10mpk BID)?
Answer: −16.35%

Question: What about the IC50 (DGAT1 [4]; [7]) of the same compound?
Answer: 31.3 nM

Question: And the IC50 (DGAT1 [4]; [8])?
Answer: 37.7 nM

Question: And the IC50 (DGAT1 [4]; [9])?
Answer: 30 nM

Question: And the EC50 (DGAT1 [5])?
Answer: 22.1 nM

Question: With `Cc1cc(N2CCOc3ncnc(N)c3C2=O)cc(C)c1-c1ccc2ccn(CC(F)(F)F)c(=O)c2c1` [Compound 105, 4-amino-6-(3,5-dimethyl-4-(1-oxo-2-(2,2,2-trifluoroethyl)-1,2-dihydroisoquinolin-7-yl)phenyl)-7,8-dihydropyrimido[5,4-f][1,4]oxazepin-5-(6H)-one] as the compound, how does the IC50 (mouse DGAT1) read?
Answer: 33.6 nM

Question: What about the solubility (Solubility at pH 7.4) of the same compound?
Answer: 70 µM (≈ 35.7 µg/mL)

Question: And the AUC(0-t) [1, 6]?
Answer: 17700 ng·h/mL

Question: What about the half-life [1, 6] of the same compound?
Answer: 3.81 h

Question: And the half-life ([1]; po, 8.94-9.33 mg/kg)?
Answer: 2.93 h

Question: And the Vd [1]?
Answer: 0.54 L/kg

Question: What about the bioavailability [1] of the same compound?
Answer: 56.8%

Question: And the “CI” value [1]?
Answer: 1.96 mL/min/kg

Question: And the “Inhibtion % @ 2 h 1 MPK PO” value [2]?
Answer: 118% inh

Question: And the “7 days Cumulative Body Weight Change (%)” value ([3]; 10mpk BID)?
Answer: −1.06%

Question: What about the “7 days Cumulative Food Intake Change (%)” value ([3]; 10mpk BID) of the same compound?
Answer: −8.56%

Question: What about the IC50 (DGAT1 [4]; [7]) of the same compound?
Answer: 31.7 nM

Question: What about the IC50 (DGAT1 [4]; [8]) of the same compound?
Answer: 27 nM

Question: And the IC50 (DGAT1 [4]; [9])?
Answer: 36.4 nM

Question: What about the EC50 (DGAT1 [5]) of the same compound?
Answer: 3.64 nM

Question: And the cell activity (DGAT1 [5]; compared with Pradigastat)?
Answer: better cell activity

Question: Which IC50 (mouse DGAT1) does the source give for `O=C(O)C[C@H]1CC[C@H](c2ccc(-c3ccc(Nc4ccc(C(F)(F)F)nc4)cn3)cc2)CC1` [Pradigastat, reference compound] here?
Answer: 30.2 nM

Question: And the solubility (Solubility at pH 7.4)?
Answer: 22 µM (≈ 10 µg/mL)

Question: What about the AUC(0-t) [1, 6] of the same compound?
Answer: 42900 ng·h/mL

Question: And the half-life [1, 6]?
Answer: 2.19 h

Question: And the half-life ([1]; po, 8.94-9.33 mg/kg)?
Answer: 2.33 h

Question: What about the Vd [1] of the same compound?
Answer: 0.15 L/kg

Question: What about the bioavailability [1] of the same compound?
Answer: 14.9%

Question: What about the “CI” value [1] of the same compound?
Answer: 0.70 mL/min/kg

Question: What about the “Inhibtion % @ 2 h 1 MPK PO” value [2] of the same compound?
Answer: 34% inh

Question: And the body weight ([3]; 30 mpk BID)?
Answer: increased slight

Question: And the food intake ([3]; 30 mpk BID)?
Answer: increased slight

Question: What about the “7 days Cumulative Body Weight Change (%)” value ([3]; 30mpk BID) of the same compound?
Answer: 1.72%

Question: And the “7 days Cumulative Food Intake Change (%)” value ([3]; 30mpk BID)?
Answer: 5.85%

Question: And the IC50 (DGAT1 [4]; [7])?
Answer: 49 nM

Question: What about the IC50 (DGAT1 [4]; [8]) of the same compound?
Answer: 68.2 nM

Question: What about the IC50 (DGAT1 [4]; [9]) of the same compound?
Answer: 29.7 nM

Question: What about the EC50 (DGAT1 [5]) of the same compound?
Answer: 3.65 nM
